According to patent US20050090522A1 (priority 2001, published 2005):
Like-named read-outs stand apart in the source and are kept apart here.

Tested on: HIV-1
Assay: HIV-1 single-round infectious luciferase reporter virus (pseudotype) assay in HeLa CD4 CCR5 cells
Format: cell-based
In short: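 Reporter pseudovirus produced in 293 cells infected HeLa cells expressing CD4/CCR5 at MOI ~0.01, with compound present at <10 μM final. Infection was quantified as luciferase luminescence after 72 h.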

[1] = Human immunodeficiency virus 1, HeLa-CD4/CCR5, read-out: EC50 Group from TABLE 1, HeLa CD4 CCR5 cells, single-round infectious luciferase reporter virus
[2] = Human immunodeficiency virus 1, HeLa-CD4/CCR5, read-out: EC50 Group from Table 1, Table 4, HeLa CD4 CCR5 cells, single-round luciferase reporter virus
[3] = Human immunodeficiency virus 1, HeLa-CD4/CCR5, read-out: EC50 Group from Table 1, Table 2-1, HeLa CD4 CCR5 cells, single-round luciferase reporter virus

Compound | EC50 [1] [nM] | further results
C[C@@H]1CN(C(=O)c2ccccc2)CCN1C(=O)C(=O)c1c[nH]c2c(-c3cnc(N)cn3)nccc12 [Example 150, (R)-1-benzoyl-3-methyl-4-[(7-(5-amino-pyrazin-2-yl)-6-azaindol-3-yl)-oxoacetyl]piperazine] | < 1000 | 
COc1ccc(-c2ccnc3c(C(=O)C(=O)N4CCN(C(=O)c5ccccc5)C[C@H]4C)c[nH]c23)cc1 [Example 67, 1-benzoyl-3-(R)-methyl-4-[(7-(4-methoxyphenyl)-4-azaindol-3-yl)oxoacetyl]piperazine] |  | EC50 [2]: < 1000 nM
CNCc1ccn(-c2ncc(OC)c3c(C(=O)C(=O)N4CCN(C(=O)c5ccccc5)CC4)c[nH]c23)n1 [Example 283, 1-benzoyl-4-[(4-methoxy-7-(3-methylaminomethyl-pyrazol-1-yl)-6-azaindol-3-yl)-oxoacetyl]piperazine] | < 1000 | 
COc1cnc(-c2cnc(N)nc2)c2[nH]cc(C(=O)C(=O)N3CCN(C(=O)c4ccccc4)CC3)c12 [Example 24] | < 1000 | 
COc1cnc(-c2nc(-c3ccc(C)cc3)n[nH]2)c2[nH]cc(C(=O)C(=O)N3CCN(C(=O)c4ccccc4)[C@H](C)C3)c12 [Example 337] |  | EC50 [3]: < 1000 nM
C[C@@H]1CN(C(=O)c2ccccn2)CCN1C(=O)C(=O)c1c[nH]c2c(-c3cnc(N(C)C)cn3)nccc12 [Example 105, (R)-1-picolinoyl-3-methyl-4-[(7-(2-dimethylamino-pyrazin-5-yl)-6-azaindol-3-yl)-oxoacetyl]piperazine] | < 1000 | 
COc1cnc(-c2cccc(N)n2)c2[nH]cc(C(=O)C(=O)N3CCN(C(=O)c4ccccc4)CC3)c12 [Example 75, 1-benzoyl-4-[(4-methoxy-7-(2-aminopyridin-6-yl)-6-azaindol-3-yl)-oxoacetyl]piperazine] | < 1000 | 
Cc1csc(NC(=O)c2ccnc3c(C(=O)C(=O)N4CCN(C(=O)c5ccccc5)C[C@H]4C)c[nH]c23)n1 [Example 136, (R)-1-benzoyl-3-methyl-4-[(7-(4-methylthiazol-2-yl)aminocarbonyl-4-azaindol-3-yl)-oxoacetyl]piperazine] |  | EC50 [2]: < 1000 nM
COc1cnc(-c2cnc(N(C)CCN(C)C)cn2)c2[nH]cc(C(=O)C(=O)N3CCN(C(=O)c4ccccc4)CC3)c12 [Example 176, 1-benzoyl-4-[(4-methoxy-7-(2-(N-dimethylaminoethyl-N-methyl)aminopyrazin-S-yl)-6-azaindol-3-yl)-oxoacetyl]piperazine] | < 1000 | 
COc1cnc(-c2cccs2)c2[nH]cc(C(=O)C(=O)N3CCN(C(=O)c4ccccc4)CC3)c12 [Example 82, 1-benzoyl-4-[(4-methoxy-7-(thiophen-2-yl)-6-azaindol-3-yl)-oxoacetyl]piperazine] | < 1000 | 
C[C@@H]1CN(C(=O)c2ccccc2)CCN1C(=O)C(=O)c1c[nH]c2c(-c3ccc(O)cn3)nccc12 [Example 124] | < 1000 | 
COc1cnc(-c2cc3ccccc3o2)c2[nH]cc(C(=O)C(=O)N3CCN(C(=O)c4ccccn4)CC3)c12 [Example 183, 1-picolinoyl-4-[(4-methoxy-7-(benzofuran-2-yl)-6-azaindol-3-yl)-oxoacetyl]piperazine] | < 1000 | 
Cc1csc(-c2ccnc3c(C(=O)C(=O)N4CCN(C(=O)c5ccccc5)CC4)c[nH]c23)c1 [Example 134] |  | EC50 [2]: < 1000 nM
O=C(C(=O)N1CCN(C(=O)c2ccccc2)CC1)c1c[nH]c2c(-c3cc4ccccc4o3)nccc12 [Example 8, 1-benzoyl-4-[(7-(benzofuran-2-yl)-6-azaindol-3-yl)-oxoacetyl]piperazine] | < 1000 | 
C[C@@H]1CN(C(=O)c2ccccc2)CCN1C(=O)C(=O)c1c[nH]c2c(-c3ncc[nH]3)cc(Cl)nc12 [Example 60, 1-benzoyl-3-(R)-methyl-4-[(5-chloro-7-(imidazol-2-yl)-4-azaindol-3-yl)-oxoacetyl]piperazine] |  | EC50 [2]: < 1000 nM
C[C@@H]1CN(C(=O)c2ccccc2)CCN1C(=O)C(=O)c1c[nH]c2c(-c3nccs3)ccnc12 [Example 53, 1-benzoyl-3-(R)-methyl-4-[(7-(thiazol-2-yl)-4-azaindol-3-yl)-oxoacetyl]piperazine] |  | EC50 [2]: < 1000 nM

Compound | EC50 [1] [nM] | further results
COc1cnc(-c2cnccn2)c2[nH]cc(C(=O)C(=O)N3CCN(C(=O)c4ccccn4)C(C)C3)c12 (centres unmarked) [Example 194, 2-methyl-1-picolinoyl-4-[(4-methoxy-7-(pyrazin-2-yl)-6-azaindol-3-yl)-oxoacetyl]piperazine] |  | EC50 [3]: < 1000 nM
COc1cnc(-n2ccc(CCO)n2)c2[nH]cc(C(=O)C(=O)N3CCN(C(=O)c4ccccc4)CC3)c12 [Example 248, 1-benzoyl-4-[(4-methoxy-7-(3-(3-hydroxylethyl)-pyrazol-1-yl)-6-azaindol-3-yl)-oxoacetyl]piperazine] | < 1000 | 
C[C@@H]1CN(C(=O)c2ccccc2)CCN1C(=O)C(=O)c1c[nH]c2c(-c3ccc(N)nc3)nccc12 [Example 113, (R)-1-benzoyl-3-methyl-4-[(7-(2-amino-pyridin-5-yl)-6-azaindol-3-yl)-oxoacetyl]piperazine] | < 1000 | 
COc1nc(-c2ncc(OC)c3c(C(=O)C(=O)N4CCN(C(=O)c5ccccc5)CC4)c[nH]c23)cnc1N [Example 101, 1-benzoyl-4-[(4-methoxy-7-(2-amino-3-methoxy-pyrazin-5-yl)-6-azaindol-3-yl)-oxoacetyl]piperazine] | < 1000 | 
CCCc1ccn(-c2ncc(OC)c3c(C(=O)C(=O)N4CCN(C(=O)c5ccccc5)[C@H](C)C4)c[nH]c23)n1 [Example 231, (R)-1-benzoyl-2-methyl-4-[(4-methoxy-7-(3-propyl-pyrazol-1-yl)-6-azaindol-3-yl)-oxoacetyl]piperazine] |  | EC50 [3]: < 1000 nM
COc1cnc(-c2nc(-c3csc(C)n3)n[nH]2)c2[nH]cc(C(=O)C(=O)N3CCN(C(=O)c4ccccc4)[C@H](C)C3)c12 [Example 341] | < 1000 | EC50 [3]: < 1000 nM
O=C(C(=O)N1CCN(C(=O)c2ccccc2)CC1)c1c[nH]c2c(-c3cncnc3)nccc12 [Example 17, 1-benzoyl-4-[(7-(pyrimidin-5-yl)-6-azaindol-3-yl)-oxoacetyl]piperazine] | < 1000 | 
COc1cnc(-n2ccc(CN(C)C)n2)c2[nH]cc(C(=O)C(=O)N3CCN(C(=O)c4ccccc4)[C@H](C)C3)c12 [Example 239, (R)-1-benzoyl-2-methyl-4-[(4-methoxy-7-(3-(N,N-dimethylamino)methyl-pyrazol-1-yl)-6-azaindol-3-yl)-oxoacetyl]piperazine] |  | EC50 [3]: < 1000 nM
COc1cnc(-n2cnc(CCC(=O)O)c2)c2[nH]cc(C(=O)C(=O)N3CCN(C(=O)c4ccccc4)CC3)c12 [Example 329] | < 1000 | 
COc1cnc(-n2ccc(O)n2)c2[nH]cc(C(=O)C(=O)N3CCN(C(=O)c4ccccc4)[C@H](C)C3)c12 [Example 257, (R)-1-benzoyl-2-methyl-4-[(4-methoxy-7-(3-hydroxylpyrazol-1-yl)-6-azaindol-3-yl)-oxoacetyl]piperazine] |  | EC50 [3]: < 1000 nM
CCCS(=O)(=O)c1ncn(-c2ncc(OC)c3c(C(=O)C(=O)N4CCN(C(=O)c5ccccc5)CC4)c[nH]c23)n1 [Example 290, 1-benzoyl-4-[(4-methoxy-7-(3-(propane-1-sulfonyl)-[1,2,4]triazol-1-yl)-6-azaindol-3-yl)-oxoacetyl]piperazine] | < 1000 | 
COc1ncn(-c2ncc(OC)c3c(C(=O)C(=O)N4CCN(C(=O)c5ccccc5)CC4)c[nH]c23)n1 [Example 291, 1-benzoyl-4-[(4-methoxy-7-(3-methoxy-[1,2,4]triazol-1-yl)-6-azaindol-3-yl)-oxoacetyl]piperazine] | < 1000 | 
COc1cnc(-n2ccc(COC(=O)CC(C)(C)C(=O)O)n2)c2[nH]cc(C(=O)C(=O)N3CCN(C(=O)c4ccccc4)[C@H](C)C3)c12 (stereo in doubt) [Example 295, 2,2-Dimethyl-succinic acid 4-(1-{3-[2-(4-benzoyl-3-methyl-piperazin-1-yl)-2-oxo-acetyl]-4-methoxy-1H-pyrrolo[2,3-c]pyridin-7-yl}-1H-pyrazol-3-ylmethyl) ester] | < 1000 | 
O=C(C(=O)N1CCN(C(=O)c2ccccc2)CC1)c1c[nH]c2c(-c3cncnc3)ncc(Cl)c12 [Example 144] | < 1000 | 
COc1cnc(-c2nc(-c3cccnc3)n[nH]2)c2[nH]cc(C(=O)C(=O)N3CCN(C(=O)c4ccccc4)[C@H](C)C3)c12 [Example 338] |  | EC50 [3]: < 1000 nM
